Reference: patent US9856252B2, “2-(hetero)aryl-benzimidazole and imidazopyridine derivatives as inhibitors of asparagime emethyl transferase” (Cancer Therapeutics CRC Pty Ltd, priority 2013, dated 2018)

Assays:
[1] = tested on: histone H4 Arginine 3 dimethylation mark in TE11 cells; test: PRMT5 Biomarker Assay; format: cell-based; details: Homo sapiens, TE-11; TE11 cell line, 72 hours incubation, Di-Methyl Histone H4R3 ELISA corrected for total protein
Description: Compounds of the invention may be tested for potency to inhibit the histone H4 Arginine 3 dimethylation mark in the following assay:
The cell line TE11 was seeded at a density of 12,000 cells per well in 96 well tissue culture plates in DME medium and 10% foetal bovine serum, and allowed to adhere overnight under standard culture conditions (37° C., 5% CO2). […] The methylation level was determined using the EpiQuik™ Global Di-Methyl Histone H4R3 Quantification ELISA Kit (Epigentek, Farmingdale, N.Y.) as per the manufacturer's recommendations; in parallel the total protein amount in the lysate was quantified using a Lowry protein assay.

[2] = target: Full-length PRMT5 enzyme (NCBI Reference sequence NP_006100.2) co-expressed with His6-MEP50 (Homo sapiens (Human), UniProt O14744); test: PRMT5 Biochemical Assay; details: histone H4 derived peptide substrate 200 nM, 1 μM S-Adenosyl methionine, 4 hours at 37° C., Transcreener EPIGEN fluorescence polarisation
Chain of Full-length PRMT5 enzyme (NCBI Reference sequence NP_006100.2) co-expressed with His6-MEP50 (O14744 whole entry): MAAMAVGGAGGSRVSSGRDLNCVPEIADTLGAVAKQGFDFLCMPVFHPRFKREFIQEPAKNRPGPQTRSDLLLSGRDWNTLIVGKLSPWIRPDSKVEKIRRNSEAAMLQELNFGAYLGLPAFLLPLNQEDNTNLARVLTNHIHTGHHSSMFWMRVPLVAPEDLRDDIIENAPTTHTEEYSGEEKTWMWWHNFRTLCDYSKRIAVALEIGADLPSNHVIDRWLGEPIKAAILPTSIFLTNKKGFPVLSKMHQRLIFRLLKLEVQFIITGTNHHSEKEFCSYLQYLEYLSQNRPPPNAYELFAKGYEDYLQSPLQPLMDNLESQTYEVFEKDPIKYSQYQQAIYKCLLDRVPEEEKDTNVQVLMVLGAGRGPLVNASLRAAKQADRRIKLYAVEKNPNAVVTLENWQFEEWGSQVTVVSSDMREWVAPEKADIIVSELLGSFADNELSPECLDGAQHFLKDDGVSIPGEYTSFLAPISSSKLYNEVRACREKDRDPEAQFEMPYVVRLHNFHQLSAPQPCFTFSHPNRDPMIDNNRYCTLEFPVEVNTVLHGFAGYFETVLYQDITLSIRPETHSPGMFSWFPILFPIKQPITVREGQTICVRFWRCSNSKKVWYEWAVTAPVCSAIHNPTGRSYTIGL
Chain of Full-length PRMT5 enzyme (NCBI Reference sequence NP_006100.2) co-expressed with His6-MEP50 (Q9BQA1 whole entry partner): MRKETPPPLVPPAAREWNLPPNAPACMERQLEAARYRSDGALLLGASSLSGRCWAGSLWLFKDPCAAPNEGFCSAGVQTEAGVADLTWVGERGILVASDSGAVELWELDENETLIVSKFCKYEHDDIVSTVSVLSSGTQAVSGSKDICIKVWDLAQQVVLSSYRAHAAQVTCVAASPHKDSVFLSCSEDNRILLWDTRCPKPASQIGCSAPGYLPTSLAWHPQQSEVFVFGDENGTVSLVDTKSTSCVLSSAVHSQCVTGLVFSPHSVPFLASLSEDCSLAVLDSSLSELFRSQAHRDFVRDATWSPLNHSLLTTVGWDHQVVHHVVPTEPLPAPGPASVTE
Description: Compounds of the invention may be tested for in vitro activity in the following assay: A histone H4 derived peptide is used as substrate (amino acid sequence: […]N H2). Full-length PRMT5 enzyme (NCBI Reference sequence NP_006100.2) was co-expressed with His6-MEP50 in insect cells and purified via Nickel immobilized metal affinity and gel filtration chromatography (“the enzyme”).
The 6 μL assay reactions are run in Greiner brand black 384-well low volume plates. All reactions contained assay buffer (phosphate buffered saline, 0.01% (v/v) Tween-20, 0.01% (w/v) albumin from chicken egg white, 1 mM dithiothreitol, 200 nM peptide substrate, 1 μM S-Adenosyl methionine, and 15 ng/reaction enzyme, with the enzyme being omitted from negative control reactions. Compounds were added in a volume of 100 nL from dilution series prepared in DMSO, positive and negative control reactions receiving the same volume DMSO without compound. The plates were sealed with adhesive seals and incubated for 4 hours at 37° C. Reaction progress was measured using the Transcreener™ EPIGEN methyltransferase assay (BellBrook Labs, Madison, Wis.) as recommended by the manufacturer. To each reaction 2 μL detection mix were added, containing coupling enzymes, fluorescence polarisation tracer, and AMP antibody. Plates were incubated for 90 minutes before being read on a PerkinElmer EnVision™ plate reader in fluorescence polarisation mode.

Row | Structure (SMILES) | IC50 [1] | IC50 [2]
1 | c1ccc(OCc2ccc(-c3nc4cc(C5CCNCC5)cnc4[nH]3)cc2)cc1 [Example 9, 2-(4-(phenoxymethyl)phenyl)-6-(piperidin-4-yl)-3H-imidazo[4,5-b]pyridine] | 0.645 µM | –
2 | c1ccc(COc2ccc(-c3nc4ccc(C5CCNCC5)nc4[nH]3)cc2)cc1 [Example 40, 2-(4-(benzyloxy)phenyl)-5-(piperidin-4-yl)-3H-imidazo[4,5-b]pyridine] | 0.731 µM | 0.223 µM
3 | C1=C(c2ccc3nc(-c4ccc(OCc5ccccc5)cc4)[nH]c3n2)CCNC1 [Example 45, 2-(4-(benzyloxy)phenyl)-5-(1,2,3,6-tetrahydropyridin-4-yl)-3H-imidazo[4,5-b]pyridine] | 1.21 µM | –
4 | O=S1(=O)CCN(c2ccc3nc(-c4ccc(OCc5ccccc5)cc4)[nH]c3n2)CC1 [Example 25, 4-(2-(4-(benzyloxy)phenyl)-3H-imidazo[4,5-b]pyridin-5-yl)thiomorpholine 1,1-dioxide] | – | 0.619 µM
5 | CC(=O)N1CCC(c2cnc3[nH]c(-c4ccc(OCc5ccccc5)cc4)nc3c2)CC1 [Example 13, 1-(4-(2-(4-(Benzyloxy)phenyl)-3H-imidazo[4,5-b]pyridin-6-yl)piperidin-1-yl)ethanone] | – | 0.339 µM
6 | Fc1ccc(COc2ccc(-c3nc4ccc(N5CCNCC5)nc4[nH]3)cc2)cc1 [Example 59] | – | 0.535 µM
7 | c1ccc(OCc2ccc(-c3nc4ccc(C5CCNCC5)nc4[nH]3)cc2)cc1 [Example 85, 2-(4-(phenoxymethyl)phenyl)-5-(piperidin-4-yl)-3H-imidazo[4,5-b]pyridine] | – | 0.151 µM
8 | O=C1CNCCN1c1ccc2nc(-c3ccc(OCc4ccccc4)cc3)[nH]c2n1 [Example 21, 1-(2-(4-(benzyloxy)phenyl)-3H-imidazo[4,5-b]pyridin-5-yl)piperazin-2-one] | – | 0.774 µM
9 | Fc1cc(-c2nc3cc(C4CCNCC4)cnc3[nH]2)ccc1OCc1ccccc1 [Example 65, 2-(4-(benzyloxy)-3-fluorophenyl)-6-(piperidin-4-yl)-3H-imidazo[4,5-b]pyridine] | – | 0.276 µM
10 | O=S(=O)(C1CC1)N1CCC(c2ccc3nc(-c4ccc(OCc5ccccc5)cc4)[nH]c3n2)CC1 [Example 89, 2-(4-(benzyloxy)phenyl)-5-(1-(cyclopropylsulfonyl)piperidin-4-yl)-3H-imidazo[4,5-b]pyridine] | – | 1.34 µM
11 | CN1CCCC(c2ccc3nc(-c4ccc(COc5ccccc5)cc4)[nH]c3n2)C1 (stereo not drawn) [Example 99, 5-(1-methylpiperidin-3-yl)-2-(4-(phenoxymethyl)phenyl)-3H-imidazo[4,5-b]pyridine] | – | 0.148 µM
12 | NCC1CCCN(c2ccc3nc(-c4ccc(OCc5ccccc5)cc4)[nH]c3n2)C1 (stereo not drawn) [Example 50] | – | 0.317 µM
13 | Clc1ccnc2[nH]c(-c3ccc(OCc4ccccc4)cc3)nc12 [Example 4, 2-(4-(benzyloxy)phenyl)-7-chloro-3H-imidazo[4,5-b]pyridine] | 0.127 µM | –
14 | c1ccc(COc2ccc(-c3nc4ccc(NC5CCNCC5)nc4[nH]3)cc2)cc1 [Example 53] | – | 0.581 µM
15 | CS(=O)(=O)N1CCC(c2cnc3[nH]c(-c4ccc(OCc5ccccc5)cc4)nc3c2)CC1 [Example 83, 2-(4-(benzyloxy)phenyl)-6-(1-(methylsulfonyl)piperidin-4-yl)-3H-imidazo[4,5-b]pyridine] | – | 1.11 µM
16 | c1ccc(OCc2ccc(-c3nc4cc(C5CCCNC5)cnc4[nH]3)cc2)cc1 (stereo not drawn) [Example 16, 2-(4-(phenoxymethyl)phenyl)-6-(piperidin-3-yl)-3H-imidazo[4,5-b]pyridine] | 1.83 µM | 0.107 µM
17 | O=C(O)Cc1ccnc2[nH]c(-c3ccc(OCc4ccccc4)cc3)nc12 [Example 77, 2-(2-(4-(benzyloxy)phenyl)-3H-imidazo[4,5-b]pyridin-7-yl)acetic acid] | – | 0.901 µM
18 | CS(=O)(=O)N1CCC(c2ccc3nc(-c4ccc(OCc5ccccc5)cc4)[nH]c3n2)CC1 [Example 87, 2-(4-(benzyloxy)phenyl)-5-(1-(methylsulfonyl)piperidin-4-yl)-3H-imidazo[4,5-b]pyridine] | – | 0.355 µM
19 | CN(C)C(=O)Cc1ccnc2[nH]c(-c3ccc(OCc4ccccc4)cc3)nc12 [Example 94, 2-(2-(4-(benzyloxy)phenyl)-3H-imidazo[4,5-b]pyridin-7-yl)-N,N-dimethylacetamide] | – | 1.02 µM
20 | CN(c1ccc2nc(-c3ccc(OCc4ccccc4)cc3)[nH]c2n1)C1CCCN(C(=O)OC(C)(C)C)C1 (stereo not drawn) [Example 30, tert-butyl 3-((2-(4-(benzyloxy)phenyl)-3H-imidazo[4,5-b]pyridin-5-yl)(methyl)amino)piperidine-1-carboxylate] | – | 2.66 µM
21 | CN(C)c1ccc2nc(-c3ccc(OCc4ccccc4)cc3)[nH]c2n1 [Example 48, 2-(4-(benzyloxy)phenyl)-N,N-dimethyl-3H-imidazo[4,5-b]pyridin-5-amine] | – | 0.45 µM
22 | FC(F)(F)c1ccccc1COc1ccc(-c2nc3ccc(N4CCNCC4)nc3[nH]2)cc1 [Example 60] | – | 1.66 µM
23 | CCS(=O)(=O)N1CCN(c2ccc3nc(-c4ccc(OCc5ccccc5)c(-c5ccn[nH]5)c4)[nH]c3n2)CC1 [Example 70] | – | 1.11 µM
24 | CNC(=O)Cc1ccnc2[nH]c(-c3ccc(OCc4ccccc4)cc3)nc12 [Example 93, 2-(2-(4-(benzyloxy)phenyl)-3H-imidazo[4,5-b]pyridin-7-yl)-N-methylacetamide] | – | 2.14 µM
25 | c1ccc(COc2ccc(-c3nc4cc(C5CCNCC5)cnc4[nH]3)cc2-c2cccnc2)cc1 [Example 64, 2-(4-(benzyloxy)-3-(pyridin-3-yl)phenyl)-6-(piperidin-4-yl)-3H-imidazo[4,5-b]pyridine] | – | 0.336 µM
